Data published in patent US20060069132A1, “Azolecarboxamide herbicides” (priority 2004, published 2006).

How the values were obtained:
barnyardgrass [1] = assay: Test A pre-/postemergence herbicide test; format: in vivo, Echinochloa crus-galli
In short: (§1)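 Pre: seeded sandy loam, directed soil spray, compound in non-phytotoxic solvent + surfactant. Post: 1–2-leaf plants (2–10 cm), sprayed to runoff. Greenhouse ~10 d; visual injury vs untreated, 0–100 scale.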

large crabgrass [2] = assay: Test A pre-/postemergence herbicide test; format: in vivo, Digitaria sanguinalis
In short: as §1

giant foxtail [3] = assay: Test A pre-/postemergence herbicide test; format: in vivo, Setaria faberi
In short: as §1

morningglory [4] = assay: Test A pre-/postemergence herbicide test; format: in vivo, Ipomoea spp.
In short: as §1

redroot pigweed = assay: Test A pre-/postemergence herbicide test; format: in vivo, Amaranthus retroflexus
In short: as §1

velvetleaf [5] = assay: Test A pre-/postemergence herbicide test; format: in vivo, Abutilon theophrasti
In short: as §1

barnyardgrass [6] = assay: Test B pre-/postemergence herbicide test; format: in vivo, Echinochloa crus-galli
In short: (§2)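 Evaluation is visual, comparing treated with control plants on a scale where 0 means no effect and 100 means full control. Treatments were preemergence, or postemergence on seedlings 2–18 cm tall, and held 13–15 days in the greenhouse.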

Surinam grass = assay: Test B pre-/postemergence herbicide test; format: in vivo, Urochloa decumbens
In short: (§3)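 Herbicidal effect was judged by eye on a 0–100 scale after plants stood 13 to 15 days in the greenhouse following pre- or postemergence treatment with surfactant-containing formulations.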

cocklebur = assay: Test B pre-/postemergence herbicide test; format: in vivo, Xanthium strumarium
In short: as §2

corn = assay: Test B pre-/postemergence herbicide test; format: in vivo, Zea mays
In short: as §3

large crabgrass [7] = assay: Test B pre-/postemergence herbicide test; format: in vivo, Digitaria sanguinalis
In short: as §3

giant foxtail [8] = assay: Test B pre-/postemergence herbicide test; format: in vivo, Setaria faberi
In short: as §3

lambsquarters = assay: Test B pre-/postemergence herbicide test; format: in vivo, Chenopodium album
In short: as §3

morningglory [9] = assay: Test B pre-/postemergence herbicide test; format: in vivo, Ipomoea coccinea
In short: as §2

pigweed = assay: Test B pre-/postemergence herbicide test; format: in vivo, Amaranthus retroflexus
In short: as §3

rice [10] = assay: Test B pre-/postemergence herbicide test; format: in vivo, Oryza sativa; details: preemergence
In short: as §3

velvetleaf [11] = assay: Test B pre-/postemergence herbicide test; format: in vivo, Abutilon theophrasti
In short: as §3

blackgrass = assay: Test B postemergence herbicide test; format: in vivo, Alopecurus myosuroides; details: scale 0 (no effect) to 100 (complete control)
In short: (§4)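 Each value is a visual 0–100 response rating taken against controls 13 to 15 days after treatment in the greenhouse. Plants received formulated chemical postemergence at the 1- to 4-leaf stage or, in flooded paddy, at the 2-leaf stage.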

wheat = assay: Test B postemergence herbicide test; format: in vivo, Triticum aestivum; parameters: key to Wheat plant response rating: 0 = no effect, 100 = complete control; details: scale 0 (no effect) to 100 (complete control)
In short: as §4

wild oat = assay: Test B postemergence herbicide test; format: in vivo, Avena fatua; details: scale 0 (no effect) to 100 (complete control)
In short: as §4

rice [12] = assay: Test B flooded paddy test; format: in vivo, Oryza sativa; details: 1000 g ai/ha, visual rating, scale 0 to 100 (0 no effect, 100 complete control), 13 to 15 days
In short: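 Treated at 2-leaf (paddy) or 1–4-leaf, 2–18 cm (postemergence); greenhouse 13–15 d; visual score vs control, 0 none to 100 complete control; dash = not tested.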

[13] = test system: small flower umbrella sedge; assay: Test B flooded paddy test; format: in vivo, Cyperus difformis; details: 1000 g ai/ha, visual rating, scale 0 to 100 (0 no effect, 100 complete control), 13 to 15 days
In short: as §4

ducksalad = assay: Test B flooded paddy test; format: in vivo, Heteranthera limosa; details: 1000 g ai/ha, visual rating, scale 0 to 100 (0 no effect, 100 complete control), 13 to 15 days
In short: as §4

barnyardgrass [14] = assay: Test B flooded paddy test; format: in vivo, Echinochloa crus-galli; details: 1000 g ai/ha, visual rating, scale 0 to 100 (0 no effect, 100 complete control), 13 to 15 days
In short: as §4

[15] = Postemergence, 500 g ai/ha, 0 to 100 scale, 0 no effect, 100 complete control
[16] = Postemergence, 2000 g ai/ha, 0 to 100 scale, 0 no effect, 100 complete control
[17] = Preemergence, 500 g ai/ha, visual rating, 0 to 100 scale (0 no effect, 100 complete control)
[18] = Preemergence, 2000 g ai/ha, 0 to 100 scale, 0 no effect, 100 complete control
[19] = 500 g ai/ha, visual rating 0-100, 0 no effect, 100 complete control, preemergence
[20] = Postemergence, 500 g ai/ha, visual rating after 13 to 15 days, scale 0 (no effect) to 100 (complete control)
[21] = postemergence, 125 g ai/ha, visual rating, scale 0 (no effect) to 100 (complete control)
[22] = preemergence, 125 g ai/ha, 0 to 100 scale, 0 is no effect, 100 is complete control
[23] = Postemergence, 500 g ai/ha, visual rating after 13 to 15 days
[24] = postemergence, 125 g ai/ha, visual rating

CCCOC(=O)c1cccc(NC(=O)c2cc(C(C)(C)C)nn2CC)c1C [Compound 90]
Barnyardgrass plant response rating (barnyardgrass [1]; [15]): 20
Plant response rating, Barnyardgrass (barnyardgrass [1]; [16]): 20
Barnyardgrass plant response rating (barnyardgrass [1]; [17]): 20
Barnyardgrass plant response rating (barnyardgrass [1]; [18]): 50
Crabgrass, Large plant response rating (large crabgrass [2]; [15]): 15
Plant response rating, Crabgrass, Large (large crabgrass [2]; [16]): 25
Crabgrass, Large plant response rating (large crabgrass [2]; [17]): 35
Crabgrass, Large plant response rating (large crabgrass [2]; [18]): 75
Foxtail, Giant plant response rating (giant foxtail [3]; [15]): 20
Plant response rating, Foxtail, Giant (giant foxtail [3]; [16]): 20
Foxtail, Giant plant response rating (giant foxtail [3]; [17]): 25
Foxtail, Giant plant response rating (giant foxtail [3]; [18]): 60
Morningglory plant response rating (morningglory [4]; [15]): 10
Plant response rating, Morningglory (morningglory [4]; [16]): 10
Morningglory plant response rating (morningglory [4]; [17]): 0
Morningglory plant response rating (morningglory [4]; [18]): 30
Pigweed plant response rating (redroot pigweed; [15]): 20
Plant response rating, Pigweed (redroot pigweed; [16]): 40
Pigweed plant response rating (redroot pigweed; [17]): 25
Pigweed plant response rating (redroot pigweed; [18]): 70
Velvetleaf plant response rating (velvetleaf [5]; [15]): 10
Plant response rating, Velvetleaf (velvetleaf [5]; [16]): 30
Velvetleaf plant response rating (velvetleaf [5]; [17]): 20
Velvetleaf plant response rating (velvetleaf [5]; Preemergence, 2000 g ai/ha, visual rating, 0 to 100 scale (0 no effect, 100 complete control)): 35
Plant response rating, Barnyardgrass (barnyardgrass [6]; [19]): 20
Plant response rating, Barnyardgrass (barnyardgrass [6]; [20]): 30
Barnyardgrass plant response rating (barnyardgrass [6]; [21]): 0
Plant response rating, Barnyardgrass (barnyardgrass [6]; [22]): 10
Plant response rating, Surinam Grass (Surinam grass; [19]): 20
Plant response rating, Surinam Grass (Surinam grass; [20]): 10
Surinam Grass plant response rating (Surinam grass; [21]): 10
Plant response rating, Surinam Grass (Surinam grass; [22]): 0
Plant response rating, Cocklebur (cocklebur; [19]): 0
Plant response rating, Cocklebur (cocklebur; [20]): 60
Cocklebur plant response rating (cocklebur; [21]): 10
Plant response rating, Cocklebur (cocklebur; [22]): 0
Plant response rating, Corn (corn; [19]): 20
Plant response rating, Corn (corn; [20]): 10
Corn plant response rating (corn; [21]): 10
Plant response rating, Corn (corn; [22]): 0
Plant response rating, Crabgrass, Large (large crabgrass [7]; [19]): 70
Plant response rating, Crabgrass, Large (large crabgrass [7]; [20]): 10
Crabgrass, Large plant response rating (large crabgrass [7]; [21]): 10
Plant response rating, Crabgrass, Large (large crabgrass [7]; [22]): 10
Plant response rating, Foxtail, Giant (giant foxtail [8]; [19]): 60
Plant response rating, Foxtail, Giant (giant foxtail [8]; [20]): 10
Foxtail, Giant plant response rating (giant foxtail [8]; [21]): 10
Plant response rating, Foxtail, Giant (giant foxtail [8]; [22]): 10
Plant response rating, Lambsquarters (lambsquarters; [19]): 90
Plant response rating, Lambsquarters (lambsquarters; [20]): 50
Lambsquarters plant response rating (lambsquarters; [21]): 50
Plant response rating, Lambsquarters (lambsquarters; [22]): 0
Plant response rating, Morningglory (morningglory [9]; [19]): 10
Plant response rating, Morningglory (morningglory [9]; [20]): 40
Morningglory plant response rating (morningglory [9]; [21]): 10
Plant response rating, Morningglory (morningglory [9]; [22]): 0
Plant response rating, Pigweed (pigweed; [19]): 80
Plant response rating, Pigweed (pigweed; [20]): 40
Pigweed plant response rating (pigweed; [21]): 30
Plant response rating, Pigweed (pigweed; [22]): 10
Plant response rating, Rice (rice [10]; 500 g ai/ha, visual rating 0-100, 0 no effect, 100 complete control): 0
Plant response rating, Rice (rice [10]; 125 g ai/ha, 0 to 100 scale, 0 is no effect, 100 is complete control): 0
Plant response rating, Velvetleaf (velvetleaf [11]; [19]): 20
Plant response rating, Velvetleaf (velvetleaf [11]; [20]): 30
Velvetleaf plant response rating (velvetleaf [11]; [21]): 10
Plant response rating, Velvetleaf (velvetleaf [11]; [22]): 0
Plant response rating, Blackgrass (blackgrass; [23]): 10
Blackgrass plant response rating (blackgrass; [24]): 0
Plant response rating, Wheat (wheat; [23]): 10
Wheat plant response rating (wheat; [24]): 10
Plant response rating, Oat, Wild (wild oat; [23]): 30
Oat, Wild plant response rating (wild oat; [24]): 10
Rice plant response rating (rice [12]): 10
Sedge, Umbrella plant response rating [13]: 50
Ducksalad plant response rating (ducksalad): 30
Barnyardgrass plant response rating (barnyardgrass [14]): 10
